# Laboratory results from patent US20060135483A1, “Oxygen/nitrogen heterocycle inhibitors of tyrosine phosphatases” (priority 2004, published 2006).
# Columns and labels:
# PTP-1B = target: T1, PTP-1B (Homo sapiens, UniProt P18031); experiment: pNPP assay for tyrosine phosphatase inhibitory activity; format: biochemical; details: pNPP substrate 10 mM, 30° C., 10 minutes, absorbance at 405 nm
# T1 construct: PTP-1B (purified, 1 mg/mL) as a 1:250 dilution
# T1 sequence (P18031 1-321 limits assumed): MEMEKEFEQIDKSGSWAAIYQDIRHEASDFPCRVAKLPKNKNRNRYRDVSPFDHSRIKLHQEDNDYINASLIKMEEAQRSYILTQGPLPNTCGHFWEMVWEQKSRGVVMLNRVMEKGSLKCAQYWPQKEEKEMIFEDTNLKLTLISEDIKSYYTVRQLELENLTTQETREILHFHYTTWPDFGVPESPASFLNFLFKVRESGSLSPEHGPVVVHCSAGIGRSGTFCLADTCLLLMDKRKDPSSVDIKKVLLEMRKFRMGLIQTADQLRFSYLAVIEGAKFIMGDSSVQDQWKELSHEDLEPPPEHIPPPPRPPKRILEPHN
# Procedure: The compounds provided herein are evaluated for biological activity as inhibitors of PTP-1B using, for example, a pNPP assay. Such an assay can be used to screen compounds for tyrosine phosphatase inhibitory activity as shown in Example 39.
# A 5× stock of pNPP (p-nitrophenol phosphate) substrate is prepared as 50 mM pNPP in assay buffer. Various tyrosine phosphatase solutions can be prepared as follows: • PTP-1B (purified, 1 mg/mL) as a 1:250 dilution (to a final concentration of 4:g/mL); • TC-PTP (NEB, 1000 units in 100:L) as a 1:50 dilution (to a final concentration of 2 U/10:L (4:g/mL)); • CD45 (Calbiochem, 20:g, 400 units in 100: L) as a 1 :50 dilution (to a final concentration of 0.8 U/10:L (4:g/mL)); • LAR (NEB, 1000 units in 200:L) as a 1:75 dilution (to a final concentration of 0.7 U/10:L (4:g/mL)); and • PTP-β (UBI, #14-350, 10,000 units, 40:g/571:L) as a 1:17.5 dilution (to a final concentration of 10 U/10:L (4:g/mL));
# The compound to be tested is prepared as 1:16.7 and 1:50 dilutions from stock in a total volume of 1 00:M DMSO to give final concentrations of 626 and 200:M. The reaction mixtures are prepared in a 96-well microtiter plate (on ice) as 55:L assay buffer, 5:L of the diluted compound (to a final concentration of 31.3 and 10:M), 20:L of the pNPP substrate solution (to a final concentration of 10 mM) and 20:L PTPase in assay buffer. The reactants are mixed well, the plate placed in a water bath at 30° C. and incubated for 10 minutes. The reaction is then terminated by adding 1 OO:L of 2M K2CO3 per well, and the absorbance is measured at 405 nm by conventional means.
# Unless otherwise indicated, this assay was used to determine activity for the selected compounds whose activity is recorded in Table 1 and Table 2.
structure (smiles),measurement,setting,value
"CCCCCCCCCCCCCCCCOCCCOP(=O)(O)C(F)(F)c1ccc(CN(c2ccc(Cl)c(Cl)c2)c2ncc(-c3ccc(S(C)(=O)=O)cc3)o2)cc1Br [{[2-Bromo-4-({(3,4-dichloro-phenyl)-[5-(4-methanesulfonyl-phenyl)-oxazol-2-yl]-amino}-methyl)-phenyl]-difluoro-methyl}-phosphonic acid mono-(3-hexadecyloxy-propyl) ester]",IC50,PTP-1B; Table 2,1000 to 10000 nM
COc1ccccc1N(Cc1ccc(C(F)(F)P(=O)(O)O)c(Cl)c1)c1ncc(-c2ccc(S(C)(=O)=O)cc2)o1 [[(2-Chloro-4-{[[5-(4-methanesulfonyl-phenyl)-oxazol-2-yl]-(2-methoxy-phenyl)-amino]-methyl}-phenyl)-difluoro-methyl]-phosphonic acid],IC50,PTP-1B; Table 2,500 to 1000 nM
"COC(=O)C(Oc1cccc(-c2cnc(N(Cc3ccc(C(F)(F)P(=O)(O)O)c(Br)c3)c3ccc(Cl)c(Cl)c3)o2)c1)c1ccccc1 (stereo not drawn) [Example 13, (3-{2-[[3-Bromo-4-(difluoro-phosphono-methyl)-benzyl]-(3,4-dichloro-phenyl)-amino]-oxazol-5-yl}-phenoxy)-phenyl-acetic acid methyl ester]",IC50,PTP-1B; Table 1,1000 to 10000 nM
"COC(=O)c1cccc(Oc2cccc(-c3nnc(N(Cc4ccc(C(F)(F)P(=O)(O)O)cc4)c4ccc(Cl)c(Cl)c4)o3)c2)c1 [Example 22, 3-[3-(5-{(3,4-Dichloro-phenyl)-[4-(difluoro-phosphono-methyl)-benzyl]-amino}-[1,3,4]oxadiazol-2-yl)-phenoxy]-benzoic acid methyl ester]",IC50,PTP-1B; Table 1,1000 to 10000 nM
"O=C(O)c1ccc(CN(Cc2ccc(C(F)(F)P(=O)(O)O)cc2)c2nnc(-c3cccc(Oc4ccccc4)c3)o2)cc1 [4-({[4-(Difluoro-phosphono-methyl)-benzyl]-[5-(3-phenoxy-phenyl)-[1,3,4]oxadiazol-2-yl]-amino}-methyl)-benzoic acid]",IC50,PTP-1B; Table 1,1000 to 10000 nM
CS(=O)(=O)c1ccc(-c2cnc(N(Cc3ccc(C(F)(F)P(=O)(O)Oc4ccccc4)c(Br)c3)c3ccc(F)cc3)o2)cc1 [{[2-Bromo-4-({(4-fluoro-phenyl)-[5-(4-methanesulfonyl-phenyl)-oxazol-2-yl]-amino}-methyl)-phenyl]-difluoro-methyl}-phosphonic acid monophenyl ester],IC50,PTP-1B; Table 2,10000 to 100000 nM
"CCOC(=O)C(C)NP(=O)(O)C(F)(F)c1ccc(CN(c2ccc(Cl)c(Cl)c2)c2ncc(-c3ccc(S(C)(=O)=O)cc3)o2)cc1Br [Example 34, {[2-Bromo-4-({(3,4-dichloro-phenyl)-[5-(4-methanesulfonyl-phenyl)-oxazol-2-yl]-amino}-methyl)-phenyl]-difluoro-methyl}-phosphonic acid mono-(L-alanylethyl ester) amidate]",IC50,PTP-1B; Table 2,100 to 500 nM
"O=C(O)c1ccc(-c2cnc(N(Cc3ccc(C(F)(F)P(=O)(O)O)c(Br)c3)c3ccccc3)o2)cc1 [Example 5, 4-(2-{[3-Bromo-4-(difluoro-phosphono-methyl)-benzyl]-phenyl-amino}-oxazol-5-yl)-benzoic acid]",IC50,PTP-1B; Table 1,100 to 500 nM
"CS(=O)(=O)c1ccc(-c2cnc(N(Cc3ccc(C(F)(F)P(=O)(O)O)c(Cl)c3)c3ccc(Cl)c(Cl)c3)o2)cc1 [Example 31, {[2-Chloro-4-({(3,4-dichloro-phenyl)-[5-(4-methanesulfonyl-phenyl)-oxazol-2-yl]-amino}-methyl)-phenyl]-difluoro-methyl}-phosphonic acid]",IC50,PTP-1B; Table 2,100 to 500 nM
same,melting point,,141 to 143 °C
COCCCN(Cc1ccc(C(F)(F)P(=O)(O)O)c(Br)c1)c1ncc(-c2ccc(S(C)(=O)=O)cc2)o1 [[(2-Bromo-4-{[[5-(4-methanesulfonyl-phenyl)-oxazol-2-yl]-(3-methoxy-propyl)-amino]-methyl}-phenyl)-difluoro-methyl]-phosphonic acid],IC50,PTP-1B; Table 2,100 to 500 nM
"O=C(O)c1ccccc1-c1cccc(-c2cnc(N(Cc3ccc(C(F)(F)P(=O)(O)O)c(Br)c3)c3ccc(Cl)c(Cl)c3)o2)c1 [Example 20, 3′-{2-[[3-Bromo-4-(difluoro-phosphono-methyl)-benzyl]-(3,4-dichloro-phenyl)-amino]-oxazol-5-yl}-biphenyl-2-carboxylic acid]",IC50,PTP-1B; Table 1,100 to 500 nM
